Source: PMC5797166, “A multidrug ABC transporter with a taste for GTP” (Scientific Reports, 2018)

Tests used:
BmrC/BmrD = biological target: T1, BmrC/BmrD (Bacillus subtilis, UniProt O07549+O07550); test: fluorescence transport assay, inside-out E. coli membrane vesicles; format: biochemical; settings: 2 mM ATP or GTP, Walker-A K/A double mutant as control
T1 construct: full-length heterodimer overexpressed in E. coli, inside-out membrane vesicles

PatA/PatB = biological target: T2, PatA/PatB (Streptococcus pneumoniae, UniProt Q8DN70+Q8DN72); test: coupled NADH oxidation assay, GTPase; format: biochemical; settings: nanodiscs of S. pneumoniae lipids, 4 mM GTP, 2 mM MgCl2, pH 7.4
T2 construct: gene ABC-NP; models PatA 1-564, PatB 1-603
T2 sequence (Q8DN70 entry or part of it): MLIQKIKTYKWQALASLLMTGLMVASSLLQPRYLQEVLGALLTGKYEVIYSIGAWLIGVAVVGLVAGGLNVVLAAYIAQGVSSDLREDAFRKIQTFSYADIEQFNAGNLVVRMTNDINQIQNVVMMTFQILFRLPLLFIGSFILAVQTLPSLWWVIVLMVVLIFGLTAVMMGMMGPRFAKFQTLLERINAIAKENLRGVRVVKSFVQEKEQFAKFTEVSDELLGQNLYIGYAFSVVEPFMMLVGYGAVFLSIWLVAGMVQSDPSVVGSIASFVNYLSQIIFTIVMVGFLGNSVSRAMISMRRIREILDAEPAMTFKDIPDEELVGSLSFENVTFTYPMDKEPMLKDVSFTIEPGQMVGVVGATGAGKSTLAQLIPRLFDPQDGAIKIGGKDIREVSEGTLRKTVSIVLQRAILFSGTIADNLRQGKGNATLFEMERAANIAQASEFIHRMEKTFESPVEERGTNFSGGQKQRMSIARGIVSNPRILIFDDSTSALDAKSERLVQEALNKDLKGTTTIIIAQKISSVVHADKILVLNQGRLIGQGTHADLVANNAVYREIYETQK
T2 sequence (Q8DN72 entry or part of it): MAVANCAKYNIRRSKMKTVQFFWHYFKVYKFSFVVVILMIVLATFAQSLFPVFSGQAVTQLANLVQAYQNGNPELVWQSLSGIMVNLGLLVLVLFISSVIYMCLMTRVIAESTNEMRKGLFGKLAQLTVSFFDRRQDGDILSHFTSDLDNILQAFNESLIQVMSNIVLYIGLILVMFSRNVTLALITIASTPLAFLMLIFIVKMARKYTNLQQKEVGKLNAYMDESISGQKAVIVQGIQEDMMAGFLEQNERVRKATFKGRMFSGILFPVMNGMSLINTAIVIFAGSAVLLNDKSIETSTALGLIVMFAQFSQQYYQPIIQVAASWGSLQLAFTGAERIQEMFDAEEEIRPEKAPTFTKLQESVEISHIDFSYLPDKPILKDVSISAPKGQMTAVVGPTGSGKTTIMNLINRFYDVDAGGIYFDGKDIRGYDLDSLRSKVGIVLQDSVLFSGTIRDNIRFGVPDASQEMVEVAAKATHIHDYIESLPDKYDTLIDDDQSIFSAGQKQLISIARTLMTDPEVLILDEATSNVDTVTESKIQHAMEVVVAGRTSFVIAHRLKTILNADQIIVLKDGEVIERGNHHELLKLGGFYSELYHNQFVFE

[1] = test system: Nc1nc2c(ncn2[C@@H]2O[C@H](COP(=O)(O)OP(=O)(O)OP(=O)(O)O)[C@@H](O)[C@H]2O)c(=O)[nH]1; test: purified protein; format: biochemical, Streptococcus pneumoniae; settings: proteoliposomes of E. coli lipids, 10 mM MgCl2, pH 8, 37 °C, cooperative fit, nH 1.74

T1 sequence (O07550 whole entry): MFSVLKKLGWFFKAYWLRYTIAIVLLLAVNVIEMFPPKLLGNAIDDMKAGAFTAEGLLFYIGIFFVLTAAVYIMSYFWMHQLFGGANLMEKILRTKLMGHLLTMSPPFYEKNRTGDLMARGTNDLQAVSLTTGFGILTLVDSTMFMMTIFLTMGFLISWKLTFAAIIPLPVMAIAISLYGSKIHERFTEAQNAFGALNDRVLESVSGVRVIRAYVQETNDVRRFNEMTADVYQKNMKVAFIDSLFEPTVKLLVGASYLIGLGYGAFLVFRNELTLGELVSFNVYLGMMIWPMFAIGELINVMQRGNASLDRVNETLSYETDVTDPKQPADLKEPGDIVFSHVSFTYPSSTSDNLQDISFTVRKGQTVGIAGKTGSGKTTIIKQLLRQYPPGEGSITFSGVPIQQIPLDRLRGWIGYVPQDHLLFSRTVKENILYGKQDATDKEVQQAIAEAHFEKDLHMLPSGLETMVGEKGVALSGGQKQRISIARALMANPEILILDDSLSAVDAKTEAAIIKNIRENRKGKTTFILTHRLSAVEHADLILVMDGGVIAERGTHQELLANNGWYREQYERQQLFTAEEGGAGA
T1 sequence (O07549 whole entry): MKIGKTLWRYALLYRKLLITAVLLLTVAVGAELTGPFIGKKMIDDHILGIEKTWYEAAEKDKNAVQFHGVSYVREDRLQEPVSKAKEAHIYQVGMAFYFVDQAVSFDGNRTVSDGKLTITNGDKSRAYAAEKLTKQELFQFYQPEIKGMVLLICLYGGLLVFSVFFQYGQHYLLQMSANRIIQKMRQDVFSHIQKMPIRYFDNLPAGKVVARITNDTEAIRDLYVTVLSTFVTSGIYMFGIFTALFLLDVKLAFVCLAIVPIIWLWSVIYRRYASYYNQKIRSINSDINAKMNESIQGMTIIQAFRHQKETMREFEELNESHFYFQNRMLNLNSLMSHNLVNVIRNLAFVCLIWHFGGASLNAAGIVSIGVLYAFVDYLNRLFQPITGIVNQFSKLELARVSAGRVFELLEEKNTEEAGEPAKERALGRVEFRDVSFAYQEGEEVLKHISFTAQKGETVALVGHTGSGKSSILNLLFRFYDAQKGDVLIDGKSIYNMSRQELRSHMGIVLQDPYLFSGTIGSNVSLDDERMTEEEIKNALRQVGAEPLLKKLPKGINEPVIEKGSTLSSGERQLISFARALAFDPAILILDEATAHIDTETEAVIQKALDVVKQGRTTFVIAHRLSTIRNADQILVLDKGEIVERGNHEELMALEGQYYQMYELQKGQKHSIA

CCOc1ccc(-c2nc3ccc(-c4nc5ccc(N6CCN(C)CC6)cc5[nH]4)cc3[nH]2)cc1 [Hoechst 33342, 2′-(4-ethoxyphenyl)-5-(4-methyl-1-piperazinyl)-2,5′-bis-1H-benzimidazole]
fluorescence transport assay, inside-out E. coli membrane vesicles (BmrC/BmrD; 1 µM Hoechst, 2 mM MgCl2, pH 8.0, 25 °C): BmrC/BmrD behaves as a conventional ABC transporter being more active in the presence of ATP

COc1cccc2c1C(=O)c1c(O)c3c(c(O)c1C2=O)C[C@@](O)(C(=O)CO)C[C@@H]3O[C@H]1C[C@H](N)[C@H](O)[C@H](C)O1 [doxorubicin]
fluorescence transport assay, inside-out E. coli membrane vesicles (BmrC/BmrD; 2 µM doxorubicin, 2 mM MgCl2, pH 8.0, 25 and 37 °C): ATP was the preferred energy substrate for BmrC/BmrD at both temperatures

[O]=[V]([OH])([OH])[OH] [orthovanadate]
% inhibition at 4 mM (PatA/PatB): 94%

PatA/PatB (Streptococcus pneumoniae R6)
Km [1]: 2640 ± 460 µM
